Measured values published in patent publication US20180021315A1, “METHODS OF TREATING HEARING DISORDERS” (Wayne State University, priority 2016, published 2018).
“Also recorded” adds a separate entry of the source.

Legend:
[1] = test system: glial fibrillary acidic protein (GFAP); experiment: GFAP immunostaining densitometry of AC astrocytes after blast; assay type: in vivo, rat; details: immunostained AC astrocytes, FIG. 24B
Source text: (§1) FIGS. 24A and 24B depict densitometry measurements of glial fibrillary acidic protein (GFAP) and TNF-α expression, respectively, as observed by fluorescence microscopy of immunohistochemistry-stained AC astrocytes. […] The decrease in astrocyte TNF-α expression was relatively smaller than the decrease in microglial TNF-α expression (compare […] with FIG. 23B). […] Error bars in FIGS. 24A-24B depict standard deviation.

blast-exposed rats = experiment: Blast-induced tinnitus behavioral testing (gap detection and PPI, startle reflex), 3,6′-dithiothalidomide; assay type: in vivo, rat
Description: Each of the rats was subjected to blast exposure in the left ear using a shock tube (ORA Inc.) located at the Wayne State University Bioengineering Center. The blast exposure of each rat was performed under anesthesia with a mixture of air (1 liter/min) and isoflurane (5% v/v). The rat was placed on supportive netting with a metal surround and secured on a pole with its head facing the oncoming shockwave. During blast exposure, the rat's right ear was occluded with a silicone earplug (Mack's; McKeon Products, Warren, Mich.), followed by application of mineral oil to seal any remaining openings. The average energy under 10 kHz measured at 22 psi was equivalent to 150 kPa or 197.5 dB SPL. After blast exposure, each rat was transferred to a polycarbonate cage.
Thirty two rats from Example 10 were used. Behavioral tinnitus testing, including gap detection and PPI testing, was conducted with Hamilton-Kinder startle-reflex hardware and software. During behavioral testing, each rat was placed in an individual noise-attenuation chamber to perform gap and PPI testing. In the gap procedure, each rat was presented with a constant 60-dB SPL background noise composed of 2,000 Hz bandpass signals at 6-8, 10-12, 14-16, 18-20, or 26-28 kHz or broadband noise (BBN; 2-30 kHz). A 115 dB SPL, 50 ms noise-burst was used as the startle stimulus to induce the acoustic startle reflex. The background noise session contained two conditions, one condition was the startle only condition in which rat was presented with the startle stimulus alone, and the other condition was the gap condition in which a rat was presented with a startle stimulus preceded by a silent gap embedded within the background noise. Silent gaps were 40 ms in duration with a lead interval of 90 ms to the startle stimulus. The startle reflex of rats was measured in response to 3 conditions: 1) background noise alone, 2) startle only, and 3) gap. Detection of the gap results in a reduction in the startle amplitude. Development of tinnitus in a specific frequency band impairs gap detection in the corresponding gap-carrier band, and thus, the startle amplitude reaches amplitudes elicited without the gap. For the PPI procedure, the parameters were almost the same as with gap except that no background noise or silent gap was used. The startle amplitude of rats in response to the two conditions was measured: the startle-only condition and a prepulse followed by the startle stimulus. In the latter condition, a 60-dB SPL, 40-msec prepulse was introduced 90 msec before the startle stimulus. The acoustic startle reflex of the rat decreased in response to the prepulse except when the rat had hearing loss at a frequency similar to the prepulse.
Rats were exposed or sham-exposed to a blast shockwave. To determine whether TNF-α is involved in blast-induced tinnitus, the rats were injected once daily for 5 days with 3,6′-dithiothalidomide starting 7 days after blast exposure. Behavioral testing and ABR recordings started 1 day after drug injection and lasted for three weeks.

TNF-α = TNF-α immunostaining densitometry of microglia and astrocytes after blast; assay type: in vivo, rat
Source text: FIGS. 23A and 23B depict densitometry measurements of ionized calcium-binding adapter molecule 1 (Iba-1) and TNF-α expression, respectively, as observed by fluorescence microscopy of immunohistochemistry-stained microglia. […] Error bars in FIGS. 23A-23B depict standard deviation.
as §1

Pyramidal neurons = experiment: Patch clamp mIPSC and mEPSC in brain slices after noise exposure; assay type: in vivo, mouse
Description: Three groups of C75BL6 mice were used. Two were exposed to 123-dB noise in the left ear for two hours. Animals in one of the two exposed group were administered 3,6′-dithiothalidomide. The drug was administered daily for five days. The remaining third group underwent the same procedure but without noise exposure or drug administration. On day 10 post-noise exposure, animals were euthanized and brain slices were prepared. Pyramidal neurons in the brain slices were recorded as described above. Miniature inhibitory and excitatory synaptic transmissions (mIPSC and mEPSC) were examined.

O=C1NC(=S)CCC1N1C(=O)c2ccccc2C1=S (stereo not drawn) [3,6′-dithiothalidomide]
blast-induced astrocyte GFAP expression [1]: is blocked
startle force of the startle-only condition, gap test (blast-exposed rats; acute tinnitus rats, 56 mg/kg i.p., post drug vs post blast, FIG. 14A): recovered significantly
startle force of the startle-only condition, PPI test (blast-exposed rats; acute tinnitus rats, 56 mg/kg i.p., post drug vs post blast, FIG. 14B): recovered significantly
gap ratio values (gap/startle-only response) (blast-exposed rats; deficit at 7 days after blast, after 5 days of treatment, FIG. 15A): recovered significantly
PPI ratio values (PPI/startle-only response) (blast-exposed rats; deficit at 7 days after blast, after 5 days of treatment, FIG. 15B): recovered significantly
tinnitus score (blast-exposed rats; tinnitus 7 days after blast, after 5 days of treatment, FIG. 16A): recovered significantly
blast-induced astrocyte TNF-α expression (TNF-α; immunostained AC astrocytes, FIG. 24A): partially blocked
blast-induced microglial TNF-α expression (TNF-α; immunostained microglia, FIG. 23B): is blocked
mIPSC frequency (noise-induced reduction) (Pyramidal neurons; mice, 123-dB noise 2 h, 28 mg/kg daily for five days, day 10, FIG. 26A, 28 mg/kg): completely reversed; also recorded: rescues the reduction in mIPSC frequency
mIPSC amplitude (noise-induced reduction) (Pyramidal neurons; mice, 123-dB noise 2 h, 28 mg/kg, FIG. 26B): rescues the reduction in mIPSC amplitude
mEPSC frequency (Pyramidal neurons; noise-exposed treated mice relative to control mice, FIG. 26C): no effect
mEPSC amplitude (Pyramidal neurons; noise-exposed treated mice relative to control mice, FIG. 26D): no significant effect
